One experiment addresses human ATX (Homo sapiens (Human), UniProt Q13822). Briefly: Human ATX enzyme inhibition assay (fluorescence quenching, MR121 substrate). Format: biochemical. Here is the method:
Human ATX Enzyme Inhibition Assay
ATX inhibition was measured by a fluorescence quenching assay using a specifically labeled substrate analogue (MR121 substrate). To obtain this MR121 substrate, BOC and TBS protected 6-amino-hexanoic acid (R)-3-({2-[3-(2-{2-[2-(2-amino-ethoxy)-ethoxy]-ethoxy}-ethoxy)-propionylamino]-ethoxy}-hydroxy-phosphoryloxy)-2-hydroxy-propyl ester (Ferguson et al., Org Lett 2006, 8 (10), 2023) was labeled with MR121 fluorophore (CAS 185308-24-1, 1-(3-carboxypropyl)-11-ethyl-1,2,3,4,8,9,10,11-octahydro-dipyrido[3,2-b:2′,3′-i]phenoxazin-13-ium) on the free amine of the ethanolamine side and then, after deprotection, subsequently with tryptophan on the side of the aminohexanoic acid.
(§1) Assay working solutions were made as follows:
Assay buffer (50 mM Tris-HCl, 140 mM NaCl, 5 mM KCl, 1 mM CaCl2, 1 mM MgCl2, 0.01% Triton-X-100, pH 8.0;
ATX solution: ATX (human His-tagged) stock solution (1.08 mg/mL in 20 mM bicine, pH 8.5, 0.15 M NaCl, 10% glycerol, 0.3% CHAPS, 0.02% NaN3), diluted to 1.4-2.5× final concentration in assay buffer;
MR121 substrate solution: MR121 substrate stock solution (800 μM MR121 substrate in DMSO), diluted to 2-5× final concentration in assay buffer.
Test compounds (10 mM stock in DMSO, 8 μL) were obtained in 384 well sample plates (Corning Costar #3655) and diluted with 8 μL DMSO. Row-wise serial dilutions were made by transferring 8 μL cpd solution to the next row up to row O. The compound and control solutions were mixed five times and 2 μL were transferred to 384 well assay plates (Corning Costar #3702). Then, 15 μL of 41.7 nM ATX solution was added (30 nM final concentration), mixed five times and then incubated for 15 minutes at 30° C. 10 μL of MR121 substrate solution was added (1 μM final concentration), mixed 30 times and then incubated for 15 minutes at 30° C.

The target of experiment [1] is Human carbonic anhydrase II (hCA-II) (Homo sapiens (Human), UniProt P00918). The experiment can be described thus: Human carbonic anhydrase-II inhibition assay (absorbance, 4-nitrophenyl acetate substrate). Format: biochemical. Here is the method:
Human Carbonic Anhydrase-II Inhibition Assay
Human carbonic anhydrase II (hCA-II) inhibition was measured by an absorbance method using 4-nitrophenyl acetate (4-NPA) as its substrate. 4-NPA can be catalyzed by active hCA II via a zinc-hydroxide mechanism. The nitrophenolate in the products can be ionized to generate a bright yellow anion with high absorbance at 348 to 400 nm, as reported in the literature (Armstrong et al., J. Biol. Chem. 1966, 241, 5137-5149). OD340 nm was chosen for detecting hCA II substrate conversion.
as §1
Assay buffer: 50 mM MOPS, 33 mM Na2SO4, 1 mM EDTA, 0.5 mg/ml BSA, pH 7.5;
Enzyme solution: hCA-II (human, full length) stock solution (1.0 mg/mL in 20 mM HEPES, 50 mM NaCl, pH 7.4), diluted to 2133× final concentration in assay buffer;
4-NPA substrate solution: 4-NPA substrate stock solution (250 mM in DMSO, stored at −20° C.), diluted to 50× final concentration in deionized water.
Test compounds (10 mM stock in DMSO, 100 μL) were obtained in […] sample plates (Corning Costar #3655) and diluted to 0.5 mM. Column-wise serial dilutions were made by transferring 20 μL compound solutions to the next column, from column 3 up to 22. After this, 1.2 μL were transferred to 384 well assay plates (Corning Costar #3701). Then 30 μL of 16 nM hCA II solution was added (8 nM final concentration), mixed five times. 30 μL of 4-NPA substrate solution was added (2.5 mM final concentration), mixed five times. Absorbance at 340 nm was then measured immediately as time zero. The assay plates were incubated at room temperature for 1 hour and then measured as time 1 hour (Perkin Elmer EnVision 2103; Filter: Photometric 340; Light intensity 60%; Number of flashes: 10). IC50 values and Ki values were calculated from these readouts.

Setting [2] is: human His-tagged ATX 30 nM, MR121 substrate 1 μM, 30° C., read-out: ATX IC50.
The mark [3] stands for this setting: hCA II 8 nM, 4-NPA 2.5 mM, absorbance 340 nm, room temperature 1 hour, read-out: CA-II IC50.

The source of these data is patent US10647719B2, “Bicyclic compounds as dual ATX/CA inhibitors” (Hoffmann-La Roche Inc., priority 2015, dated 2020).

Where two headings read alike, the source gives them in different places.

A word on the IC50: it is the concentration that gives 50% inhibition. `CC(C)(C)C(=O)Nc1cc(Cl)cnc1COC(=O)N1CC2=C(C1)CN(C(=O)c1ccc(S(N)(=O)=O)cc1F)C2` [Example 1.12, [5-chloro-3-(2,2-dimethylpropanoylamino)pyridin-2-yl]methyl 2-(2-fluoro-4-sulfamoylbenzoyl)-1,3,4,6-tetrahydropyrrolo[3,4-c]pyrrole-5-carboxylate]: the IC50 at human ATX (setting [2]) is 6 nM; in experiment [1] (setting [3]), 12.9 nM.

With `NS(=O)(=O)c1ccc(C(=O)N2CC3=C(CN(C(=O)c4cc(OCC5CCOCC5)nc(C5CC5)c4)C3)C2)c(F)c1F` [Example 1.33, 4-[5-[2-cyclopropyl-6-(oxan-4-ylmethoxy)pyridine-4-carbonyl]-1,3,4,6-tetrahydropyrrolo[3,4-c]pyrrole-2-carbonyl]-2,3-difluorobenzenesulfonamide], the IC50 against human ATX was 1 nM; in experiment [1], 2.3 nM.

Turning to `CC(C)(C)C(=O)Nc1cc(Cl)cnc1COC(=O)N1CC2=C(C1)CN(C(=O)c1ccc(S(N)(=O)=O)c(F)c1)C2` [Example 1.13, [5-chloro-3-(2,2-dimethylpropanoylamino)pyridin-2-yl]methyl 2-(3-fluoro-4-sulfamoylbenzoyl)-1,3,4,6-tetrahydropyrrolo[3,4-c]pyrrole-5-carboxylate], the IC50 on human ATX (setting [2]) is 2 nM; in experiment [1] (setting [3]), 20.6 nM.

`Cc1nnn(Cc2cc(Cl)ccc2CCC(=O)N2CC3=C(C2)CN(C(=O)c2ccc(S(N)(=O)=O)cc2F)C3)n1` [Example 3.07, 4-[2-[3-[4-chloro-2-[(5-methyltetrazol-2-yl)methyl]phenyl]propanoyl]-1,3,4,6-tetrahydropyrrolo[3,4-c]pyrrole-5-carbonyl]-3-fluorobenzenesulfonamide]: the figures for the IC50 (against human ATX; in experiment [1]) were 4 nM and 5 nM, respectively.

With `NS(=O)(=O)c1ccc(C(=O)N2CC3=C(CN(C(=O)OCc4ccc(OC(F)(F)F)cc4)C3)C2)nc1` [Example 2.02, [4-(trifluoromethoxy)phenyl]methyl 2-(5-sulfamoylpyridine-2-carbonyl)-1,3,4,6-tetrahydropyrrolo[3,4-c]pyrrole-5-carboxylate], the IC50 amounted to 3 nM against human ATX and 8 nM in experiment [1].

As to `Cc1cn(Cc2cc(C(F)(F)F)ccc2CCC(=O)N2CC3=C(C2)CN(C(=O)c2ccc(S(N)(=O)=O)cc2F)C3)nn1` [Example 3.09, 3-fluoro-4-[2-[3-[2-[(4-methyltriazol-1-yl)methyl]-4-(trifluoromethyl)phenyl]propanoyl]-1,3,4,6-tetrahydropyrrolo[3,4-c]pyrrole-5-carbonyl]benzenesulfonamide], the values for the IC50 (on human ATX; in experiment [1]) were 1 nM and 11 nM, respectively.

For `NS(=O)(=O)c1ccc(C(=O)N2CC3=C(CN(C(=O)OCc4ccc(OC(F)(F)F)cc4)C3)C2)cc1` [Example 1.06, 4-(trifluoromethoxy)benzyl 5-(4-sulfamoylbenzoyl)-3,4,5,6-tetrahydropyrrolo[3,4-c]pyrrole-2(1H)-carboxylate], the figures for the IC50 (against human ATX; in experiment [1]) were 5 nM and 10 nM, respectively.

As to `CC(C)(C)C(=O)Nc1cc(Cl)cnc1COC(=O)N1CC2=C(C1)CN(C(=O)c1ccc(S(N)(=O)=O)c(F)c1F)C2` [Example 1.14, [5-chloro-3-(2,2-dimethylpropanoylamino)pyridin-2-yl]methyl 2-(2,3-difluoro-4-sulfamoylbenzoyl)-1,3,4,6-tetrahydropyrrolo[3,4-c]pyrrole-5-carboxylate], the IC50 at human ATX (setting [2]) was determined as 15 nM; in experiment [1] (setting [3]) it was 16.6 nM.

Consider `CC(C)(C)C(=O)Nc1ccc(Cl)nc1COC(=O)N1CC2=C(C1)CN(C(=O)c1ccc(S(N)(=O)=O)c(F)c1)C2` [Example 1.21, [6-chloro-3-(2,2-dimethylpropanoylamino)pyridin-2-yl]methyl 2-(3-fluoro-4-sulfamoylbenzoyl)-1,3,4,6-tetrahydropyrrolo[3,4-c]pyrrole-5-carboxylate], for which the IC50 turned out to be 12 nM on human ATX (setting [2]) and 3 nM in experiment [1] (setting [3]).

Turning to `CC(C)(C)C(=O)Nc1cc(C#N)cnc1COC(=O)N1CC2=C(C1)CN(C(=O)c1cc(F)c(S(N)(=O)=O)cc1F)C2` [Example 1.27, [5-cyano-3-(2,2-dimethylpropanoylamino)pyridin-2-yl]methyl 2-(2,5-difluoro-4-sulfamoylbenzoyl)-1,3,4,6-tetrahydropyrrolo[3,4-c]pyrrole-5-carboxylate], the concentration for half-maximal inhibition (IC50) on human ATX (setting [2]) was determined as 8 nM; in experiment [1] (setting [3]) it was 18 nM.

Take `NS(=O)(=O)c1ccc(C(=O)N2CC3=C(CN(C(=O)COc4ccc(OC(F)(F)F)cc4)C3)C2)c(F)c1` [Example 3.05, 3-fluoro-4-[2-[2-[4-(trifluoromethoxy)phenoxy]acetyl]-1,3,4,6-tetrahydropyrrolo[3,4-c]pyrrole-5-carbonyl]benzenesulfonamide]: the IC50 against human ATX was 4 nM; in experiment [1] it was 9 nM.

For the compound `Cc1nnn(Cc2cc(C(F)(F)F)cnc2CCC(=O)N2CC3=C(C2)CN(C(=O)c2ccc(S(N)(=O)=O)cc2F)C3)n1` [Example 3.10, 3-fluoro-4-[2-[3-[3-[(5-methyltetrazol-2-yl)methyl]-5-(trifluoromethyl)pyridin-2-yl]propanoyl]-1,3,4,6-tetrahydropyrrolo[3,4-c]pyrrole-5-carbonyl]benzenesulfonamide], the IC50 is 2 nM at human ATX and 5 nM in experiment [1].

Regarding `CC(C)(C)C(=O)Nc1cc(C(F)(F)F)cnc1COC(=O)N1CC2=C(C1)CN(C(=O)c1ccc(S(N)(=O)=O)c(F)c1F)C2` [Example 1.09, [3-(2,2-dimethylpropanoylamino)-5-(trifluoromethyl)pyridin-2-yl]methyl 2-(2,3-difluoro-4-sulfamoylbenzoyl)-1,3,4,6-tetrahydropyrrolo[3,4-c]pyrrole-5-carboxylate], the figures for the IC50 (on human ATX (setting [2]); in experiment [1] (setting [3])) were 27 nM and 10 nM, respectively.

`CC(C)(C)C(=O)Nc1cc(C#N)cnc1COC(=O)N1CC2=C(C1)CN(C(=O)c1ccc(S(N)(=O)=O)c(F)c1F)C2` [Example 1.26, [5-cyano-3-(2,2-dimethylpropanoylamino)pyridin-2-yl]methyl 2-(2,3-difluoro-4-sulfamoylbenzoyl)-1,3,4,6-tetrahydropyrrolo[3,4-c]pyrrole-5-carboxylate] registered an IC50 at human ATX of 3 nM.

Turning to `CC(C)(C)C(=O)Nc1cc(C(F)(F)F)cnc1COC(=O)N1CCC2=C(CCN(C(=O)c3ccc(S(N)(=O)=O)cc3F)C2)C1` [Example 1.28, [3-(2,2-dimethylpropanoylamino)-5-(trifluoromethyl)pyridin-2-yl]methyl 6-(2-fluoro-4-sulfamoylbenzoyl)-1,3,4,5,7,8-hexahydro-2,6-naphthyridine-2-carboxylate], the IC50 at human ATX (setting [2]) turned out to be 1 nM.

Turning to `CC(C)(C)C(=O)Nc1cc(C#N)cnc1COC(=O)N1CC2=C(C1)CN(C(=O)c1ccc(S(N)(=O)=O)cc1F)C2` [Example 1.24, [5-cyano-3-(2,2-dimethylpropanoylamino)pyridin-2-yl]methyl 2-(2-fluoro-4-sulfamoylbenzoyl)-1,3,4,6-tetrahydropyrrolo[3,4-c]pyrrole-5-carboxylate], in experiment [1] (setting [3]), the IC50 was determined as 7 nM.

For the compound `CC(C)(C)C(=O)Nc1cc(C#N)cnc1COC(=O)N1CC2=C(C1)CN(C(=O)c1c(F)cc(S(N)(=O)=O)cc1F)C2` [Example 1.25, [5-cyano-3-(2,2-dimethylpropanoylamino)pyridin-2-yl]methyl 2-(2,6-difluoro-4-sulfamoylbenzoyl)-1,3,4,6-tetrahydropyrrolo[3,4-c]pyrrole-5-carboxylate], the IC50 in experiment [1] (setting [3]) worked out at 8 nM.
